Assay results: ChEMBL document CHEMBL1201862, “PubChem BioAssay data set” (2004)
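All cell lines were grown in 96-well plates and treated with compound for 48 hours. GI50 marks 50% less growth.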 Calls of active or inactive are those of the source. Cut-off read from the data, not from the text of the source: active = GI50 up to about 1.1 µM and inactive = higher.

What was measured:
Test in all cases: growth of human tumour cells (NCI), 48 h
[1] = test system: 786-0
[2] = test system: DLD-1
[3] = test system: DMS-114
[4] = test system: DMS-273
[5] = test system: HL-60
[6] = test system: HOP-62
[7] = test system: HT-29
[8] = test system: KM-20L2
[9] = test system: OVCAR-5
[10] = test system: SK-MEL-28
[11] = test system: SK-MEL-5
[12] = test system: SNB-19
[13] = test system: A498
[14] = test system: OVCAR-4
[15] = test system: DU-145
[16] = test system: MDA-MB-435
[17] = test system: MDA-N
[18] = test system: NCI/ADR-RES
[19] = test system: PC-3
[20] = test system: T47D

Measured: GI50

O=c1nc2n(c3nsnc13)CCO2
inactive: [1] > 100 µM | [2] > 100 µM | [3] 36.6 µM | [4] > 100 µM | [5] > 100 µM | [6] > 100 µM | [7] > 100 µM | [8] > 100 µM | [9] > 100 µM | [10] > 100 µM | [11] > 100 µM | [12] > 100 µM

Cn1c(=O)c2ccccc2c2nc3ccccc3nc21
inactive: [1] 97.5 µM | [3] > 100 µM | [4] > 100 µM | [7] > 100 µM | [8] > 100 µM | [9] > 100 µM | [10] > 100 µM | [11] > 100 µM | [12] > 100 µM

C/C(CC(=O)Nc1cc(Cl)c(Cl)cc1Cl)=N\NC(N)=O
inactive: [1] > 100 µM | [2] > 100 µM | [3] > 100 µM | [4] > 100 µM | [5] > 100 µM | [6] > 100 µM | [7] > 100 µM | [8] > 100 µM | [9] > 100 µM | [10] > 100 µM | [11] > 100 µM

CC(C)=CC1CC(=[N+]=[N-])C(=O)C1(C)C (stereo not drawn)
inactive: [1] > 100 µM | [13] > 100 µM | [2] > 100 µM | [3] > 58.3 µM | [5] > 100 µM | [6] > 100 µM | [7] > 31.6 µM | [8] > 100 µM | [14] > 100 µM | [9] > 100 µM | [10] > 100 µM | [11] > 100 µM | [12] > 100 µM

CO[C@H]1C=CO[C@@]2(C)Oc3c(C)c(O)c4c(O)c(c(CN5CCN(C)CC5)c(O)c4c3C2=O)NC(=O)/C(C)=C\C=C[C@H](C)[C@H](O)C(C)[C@@H](O)C(C)[C@H](OC(C)=O)[C@@H]1C (stereo partly drawn)
inactive: [1] 21.3 µM | [13] > 100 µM | [15] 34.8 µM | [5] 23.1 µM | [6] 17.7 µM | [7] 21.6 µM | [16] 27.5 µM | [17] 44.3 µM | [18] > 100 µM | [14] 27.5 µM | [9] > 100 µM | [19] 17 µM | [10] 90.4 µM | [11] 24.3 µM | [12] > 100 µM | [20] 26.7 µM

CN1CCCC2[C@@H]3CCC4c5nonc5CC[C@]4(C)C3CC[C@@]21C (stereo partly drawn)
inactive: [1] > 100 µM | [2] 51.1 µM | [3] > 100 µM | [4] 93.3 µM | [7] 38.1 µM | [8] 23.3 µM | [14] > 100 µM | [9] > 100 µM | [10] 37.6 µM | [11] 42.5 µM | [12] > 100 µM

Cn1c(SCc2c[nH]c3ccccc23)nnc1-c1ccc(Cl)cc1Cl
inactive: [1] 24.4 µM | [13] 16.3 µM | [15] 17.6 µM | [5] 10.4 µM | [6] 6.1 µM | [7] 17.3 µM | [16] 3 µM | [17] 4.44 µM | [18] 6.07 µM | [14] 12.4 µM | [9] 22.8 µM | [19] 12.1 µM | [10] 36.2 µM | [11] 14.5 µM | [12] 16.8 µM | [20] 12.7 µM

CC1CCC2(CC1)NN=c1s/c(=C\c3ccc(O)cc3)c(=O)n1N2 (stereo not drawn)
inactive: [1] > 100 µM | [2] > 100 µM | [3] > 100 µM | [4] > 100 µM | [5] > 100 µM | [6] > 100 µM | [7] > 100 µM | [8] > 100 µM | [14] > 100 µM | [10] > 100 µM | [11] > 100 µM | [12] > 100 µM

O=[N+]([O-])c1ccc(/C=C/c2ccc(/N=N/c3ccc(/C=C/c4ccc([N+](=O)[O-])cc4S(=O)(=O)O)c(S(=O)(=O)O)c3)cc2S(=O)(=O)O)c(S(=O)(=O)O)c1
inactive: [13] > 100 µM | [2] > 100 µM | [3] > 100 µM | [4] > 71 µM | [5] > 100 µM | [6] > 100 µM | [7] > 100 µM | [18] > 100 µM | [14] > 56.8 µM | [9] > 100 µM | [10] > 100 µM | [11] > 100 µM

Oc1ccc2ccccc2c1Cc1c(O)ccc2ccccc12
inactive: [1] 21.1 µM | [13] 18.2 µM | [15] 17.9 µM | [5] 17.8 µM | [6] 16.4 µM | [7] 22.1 µM | [16] 11 µM | [17] 11.6 µM | [18] 15.2 µM | [14] 13.1 µM | [9] 15.6 µM | [19] 17.5 µM | [10] 21.6 µM | [11] 16.1 µM | [12] 18.4 µM | [20] 20.3 µM
